Results as given in PMC10702835, “Recognition of centromere‐specific histone Cse4 by the inner kinetochore Okp1‐Ame1 complex” (EMBO Reports, 2023).

Tests used:
Okp1(EYAA)‐Ame1 = target: T1, Okp1(EYAA)‐Ame1 (Saccharomyces cerevisiae, UniProt P38313+P53298, E235A/Y238A); experiment: biochemical; assay type: binding
T1 construct: Full‐length mutant Okp1‐Ame1 complex (EYAA or I195Y as indicated) was tested for its association with FITC‐Cse4^END; 6His (C); made in house; host or cells: E. coli
Method: (§1) Results of a GST pulldown assay are shown. • The minimal Okp1‐Ame1 complex used for crystallography was tested for its association with FITC‐Cse4^END in a fluorescence polarization experiment.
(§2) Fluorescence polarization assays
(§3) FITC‐Cse4^28‐60 peptide was synthesized by the Tufts University Core Facility. 20 nM of FITC‐Cse4^28‐60 peptide was used in all reactions, and Okp1‐Ame1 concentrations were varied to determine the dissociation constant (K D ), in reaction buffer containing 100 mM HEPES, pH 7.5, 200 mM NaCl, 1 mM TCEP (full‐length Okp1‐Ame1 complex) or reaction buffer with 600 mM NaCl (truncated Okp1‐Ame1 complex).

Okp1‐Ame1(I195Y) = target: T2, Okp1‐Ame1(I195Y) (Saccharomyces cerevisiae, UniProt P38313+P53298, I195Y); experiment: biochemical; assay type: binding
T2 construct: Full‐length mutant Okp1‐Ame1 complex (EYAA or I195Y as indicated) was tested for its association with FITC‐Cse4^END; 6His (C); made in house; host or cells: E. coli
T2 sequence (P38313 whole entry I195Y): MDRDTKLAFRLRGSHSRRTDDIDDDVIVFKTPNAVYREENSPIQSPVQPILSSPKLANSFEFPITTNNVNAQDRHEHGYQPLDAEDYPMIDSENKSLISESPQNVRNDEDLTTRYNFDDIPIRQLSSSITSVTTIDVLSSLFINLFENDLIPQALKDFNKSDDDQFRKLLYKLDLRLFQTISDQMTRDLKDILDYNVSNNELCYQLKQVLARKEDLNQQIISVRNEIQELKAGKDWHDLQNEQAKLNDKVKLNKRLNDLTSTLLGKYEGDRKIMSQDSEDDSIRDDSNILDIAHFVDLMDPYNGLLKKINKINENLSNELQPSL
T2 sequence (P53298 whole entry): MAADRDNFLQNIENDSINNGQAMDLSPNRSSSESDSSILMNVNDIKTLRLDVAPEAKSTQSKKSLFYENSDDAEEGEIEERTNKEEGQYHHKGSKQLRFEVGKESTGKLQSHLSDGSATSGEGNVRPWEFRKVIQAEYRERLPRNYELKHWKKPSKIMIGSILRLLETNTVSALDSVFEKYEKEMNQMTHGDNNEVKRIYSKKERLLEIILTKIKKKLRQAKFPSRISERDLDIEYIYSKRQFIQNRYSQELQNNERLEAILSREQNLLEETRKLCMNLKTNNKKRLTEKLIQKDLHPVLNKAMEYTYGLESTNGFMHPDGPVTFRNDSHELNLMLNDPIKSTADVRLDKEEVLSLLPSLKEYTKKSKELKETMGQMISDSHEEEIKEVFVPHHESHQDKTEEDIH
Method: as §1, §2, §3

T1 sequence (P38313 whole entry): as the sequence (P38313 whole entry I195Y) above, with Y195I counted along it
T1 sequence (P53298 whole entry E235A/Y238A): as the sequence (P53298 whole entry) above, with E235A, Y238A counted along it

## CC[C@H](C)[C@H](NC(=O)[C@H](CO)NC(=O)[C@H](CCC(N)=O)NC(=O)[C@H](CCC(N)=O)NC(=O)[C@H](CC(=O)O)NC(=O)CNC(=O)[C@H](C)N)C(=O)N[C@@H](CC(N)=O)C(=O)N[C@@H](CC(=O)O)C(=O)N[C@@H](CCCNC(=N)N)C(=O)N[C@@H](C)C(=O)N[C@@H](CC(C)C)C(=O)N[C@@H](CO)C(=O)N[C@@H](CC(C)C)C(=O)N[C@@H](CC(C)C)C(=O)N[C@@H](CCC(N)=O)C(=O)N[C@@H](CCCNC(=N)N)C(=O)N[C@H](C(=O)N[C@@H](CCCNC(=N)N)C(=O)N[C@@H](C)C(=O)N[C@H](C(=O)N[C@@H](CCCCN)C(=O)N[C@@H](CC(N)=O)C(=O)N[C@@H](CC(C)C)C(=O)N[C@@H](Cc1ccccc1)C(=O)N1CCC[C@H]1C(=O)N[C@@H](CCCNC(=N)N)C(=O)N[C@@H](CCCNC(=N)N)C(=O)N[C@@H](CCC(=O)O)C(=O)N[C@@H](CCC(=O)O)C(=O)N[C@@H](CCCNC(=N)N)C(=O)N[C@@H](CCCNC(=N)N)C(=O)N[C@@H](CCCNC(=N)N)C(=O)O)[C@@H](C)O)[C@@H](C)O [Cse4^END]
Okp1(EYAA)‐Ame1
  Kd: > 3 µM
Okp1‐Ame1(I195Y)
  Kd: > 3 µM
